Values quoted from earlier work in patent US8691283B2, “Standardized bee venom preparation” (priority 2000, dated 2014).

System: hypophyseal-adrenal system
Details: melittin stimulates the hypophyseal-adrenal system and produces cortisone

## CC[C@H](C)[C@H](NC(=O)CN)C(=O)NCC(=O)N[C@@H](C)C(=O)N[C@H](C(=O)N[C@@H](CC(C)C)C(=O)N[C@@H](CCCCN)C(=O)N[C@H](C(=O)N[C@@H](CC(C)C)C(=O)N[C@H](C(=O)N[C@H](C(=O)NCC(=O)N[C@@H](CC(C)C)C(=O)N1CCC[C@H]1C(=O)N[C@@H](C)C(=O)N[C@@H](CC(C)C)C(=O)N[C@H](C(=O)N[C@@H](CO)C(=O)N[C@@H](Cc1c[nH]c2ccccc12)C(=O)N[C@H](C(=O)N[C@@H](CCCCN)C(=O)N[C@@H](CCCNC(=N)N)C(=O)N[C@@H](CCCCN)C(=O)N[C@@H](CCCNC(=N)N)C(=O)N[C@@H](CCC(N)=O)C(=O)N[C@@H](CCC(N)=O)C(N)=O)[C@@H](C)CC)[C@@H](C)CC)[C@@H](C)O)[C@@H](C)O)C(C)C)C(C)C [melittin, Melittin]
  potency relative to hydrocortisone: 100 times
